Measurements taken from patent US5166201A, “2β,19-ethylene bridged steroids as aromatase inhibitors” (Merrell Dow Pharmaceuticals Inc., priority 1990, dated 1992).

Biological target: T1, aromatase (Homo sapiens, UniProt P11511)
T1 construct: microsomal protein per ml of assay buffer; from tissue; host or cells: microsomes
T1 sequence (P11511 1-503): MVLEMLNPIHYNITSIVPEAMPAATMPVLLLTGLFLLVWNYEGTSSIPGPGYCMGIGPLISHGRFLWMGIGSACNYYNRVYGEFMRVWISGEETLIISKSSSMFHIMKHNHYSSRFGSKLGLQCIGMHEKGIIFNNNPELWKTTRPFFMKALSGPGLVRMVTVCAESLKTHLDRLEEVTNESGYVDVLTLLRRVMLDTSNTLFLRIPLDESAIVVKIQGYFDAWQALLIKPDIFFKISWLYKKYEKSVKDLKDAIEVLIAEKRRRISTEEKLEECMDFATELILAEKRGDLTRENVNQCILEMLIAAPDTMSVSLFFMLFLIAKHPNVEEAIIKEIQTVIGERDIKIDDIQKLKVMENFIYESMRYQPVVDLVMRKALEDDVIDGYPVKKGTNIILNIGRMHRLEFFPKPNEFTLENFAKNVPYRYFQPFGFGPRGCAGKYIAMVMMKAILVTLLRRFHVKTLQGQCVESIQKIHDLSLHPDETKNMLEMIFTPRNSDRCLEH
Assay: time-dependent aromatase inhibition assay (preincubation, Kitz-Wilson analysis)
Type: biochemical
Experimental: In this assay, the inhibitor is preincubated with enzyme prior to assaying for activity in the presence of high substrate levels. A time-related decrease in enzyme activity can be indicative of irreversible binding […] a preferred method of inhibition.
In the time-dependent assay, an amount of the enzyme inhibitor in 100 μl of the assay buffer described above which will provide assay concentrations which are usually between 1 nM and 10 μm are added to 35-ml centrifuge tubes containing 600 μl of the NADPH generating system. The preincubation is started by the addition of 700 μl of aromatase preparation, usually 300-800 μg of microsomal protein per ml of assay buffer. These preparations are mixed using a vortex mixer and incubated for 0, 5, 10 or 20 minutes at 25° C. Then 100 μl of androstenedione (-6.8 μM) containing 1β-^3 H androstenedione is added in assay buffer to provide an assay concentration of substrate (0.55 μM) which is at least ten times the Km of androstenedione (0.04 μM). Following vortexing, the enzyme incubation is continued for 10 minutes before being terminated by the addition of chloroform. The amount of radioactivity in the aqueous fraction is determined by scintillation procedures. The enzymatic activity for each concentration of inhibitor at each time period of preincubation is calculated as a percent of the "0" minute vehicle control arbitrarily set at 100%. Therefore, the present enzyme inhibition is expressed as a percentage: (100 percent minus percent enzyme activity with inhibitor present).
Enzyme kinetic analysis utilized Kitz-Wilson plots for time-dependent assays. These analyses provide estimates of apparent Ki of inactivation which represents the inhibitor concentration required to produce half-maximal rate of enzyme inactivation. The pseudo first-order rate constant for enzyme inactivation (kcat) and the half-time of inactivation (.tau.50) of infinite inhibitor concentrations were determined. […]

## C[C@]12CC[C@H]3[C@@H](CCC4=CC(=O)[C@H]5CCC[C@]43C5)[C@@H]1CCC2=O [2β,19-(ethylene)androst-4-ene-3,17-dione]
Kitz-Wilson analysis, read-out: kcat /Ki (inactivation) ratio, index of efficiency of enzyme inactivation
  kinact/KI: 558000 M⁻¹ s⁻¹
Kitz-Wilson plot, microsomal aromatase preparation, 25° C.
  half-time of inactivation (.tau.50) at infinite inhibitor concentration: 0.87 min
Kitz-Wilson plot, microsomal aromatase preparation, preincubation 0-20 min at 25° C., androstenedione 0.55 μM, read-out: apparent Ki of inactivation
  KI (inactivation): 23.9 nM
